Test results from paper PMC11644518 (Plants, 2024).
Values joined by “and” are separate entries in the source; they are usually repeats but may differ in a detail not shown here. Identical values can stand only once.

Columns and labels:
SARS-CoV PLpro [1] = target: T1, SARS-CoV PLpro (Severe acute respiratory syndrome coronavirus, UniProt P0C6X7); assay: biochemical; details: for IC50: IC50 Value, SARS-CoV PLpro inhibitory activity
SARS-CoV PLpro [2] = target: T1, SARS-CoV PLpro; assay: biochemical; details: for Ki: Ki (inhibition constant)

SMILES | fold higher inhibition than demethoxylated analog 1 (SARS-CoV PLpro [1]) | IC50 (SARS-CoV PLpro [1]) | Inhibition Mode (SARS-CoV PLpro [2]) | Ki (SARS-CoV PLpro [2]) | fold lower potency than 7 (SARS-CoV PLpro [1]) | Effect on Michaelis-Menten constant (Km) (SARS-CoV PLpro [2]) | Effect on Vmax (SARS-CoV PLpro [2]) | Reversibility of inhibition (SARS-CoV PLpro [2])
COc1c(CC=C(C)C)c(O)cc2c1[C@@H]1Oc3c(ccc(O)c3CC=C(C)C)[C@@H]1CO2 [Compound 3, 1-methoxyerythrabyssin II] | 2 fold | 11.2 µM | Noncompetitive (8.6 ± 1.1) | 8.6 µM | – | – | – | –
CC(C)=CCC/C(C)=C/Cc1c(O)ccc(C(=O)/C=C/c2ccc(O)cc2)c1O [Compound 7, xanthoangelol] | – | 6.3 ± 1.5 µM | Noncompetitive (5.5 ± 0.8) | 5.5 µM | – | – | – | –
CC(C)=CCC[C@@]1(C)C=Cc2c(ccc(C(=O)/C=C/c3ccc(O)cc3)c2O)O1 (racemic) [Compound 8, (±)-lespeol] | – | 50.1 ± 4.2 µM | Noncompetitive (54.0 ± 4.5) | 54 µM | 8 fold | – | – | –
COc1c(CC=C(C)C)c(O)cc2c1[C@@H]1Oc3c(cc(C)c(O)c3CC=C(C)C)[C@@H]1CO2 [Compound 4, bicolosin A] | – | 43.3 µM and 43.2 µM | Noncompetitive (45.2 ± 3.1) | 45.2 µM | – | – | – | –
CC(C)=CCc1cc2c(cc1O)OCC1c3cc(C)c(O)c(CC=C(C)C)c3OC21 (stereo not shown) [Compound 2, lespebuergine G4] | – | 33 µM and 32.9 µM | Noncompetitive (33.2 ± 1.7) | 33.2 µM | – | – | – | –
CC(C)=CCC/C(C)=C/Cc1cc2c(cc1O)OC[C@H]1c3cc(C)c(O)c(CC=C(C)C)c3O[C@@H]21 [Compound 5, bicolosin B] | – | 217 ± 7.6 µM | – | – | – | – | – | –
COc1c(O)ccc(C2COc3cc(O)cc(O)c3C2=O)c1OC (stereo not shown) [Compound 9, parvisoflavanone] | – | 104 ± 6.1 µM | Noncompetitive (75.3 ± 5.7) | 75.3 µM | – | – | – | –
CC(C)=CCc1cc2c(cc1O)OC[C@H]1c3ccc(O)c(CC=C(C)C)c3O[C@@H]21 [Compound 1, erythrabyssin II] | – | – | Noncompetitive (17.0 ± 3.1) | – | – | – | – | –
COc1cc(O)c(C/C=C(\C)CCC=C(C)C)c2c1[C@@H]1Oc3cc(O)ccc3[C@@H]1CO2 [Compound 6, bicolosin C] | – | 9.3 ± 3.1 µM | Noncompetitive (9.0 ± 1.4) | 9.06 µM and 9 µM | – | no effect | reduced | reversible inhibitor
